For test [1], the target named is human α2β3γ2 GABAARs (benzodiazepine site) (Homo sapiens (Human), UniProt P18507+P47869). The experiment in a line: In vitro radioligand binding assay ([3H]Ro15-1788 displacement), α2-GABAAR Ki. In outline:
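Membranes from dexamethasone-induced mouse L(tk−) cells stably expressing the human receptor were incubated 1 h at 4° C with 4 nM [3H]Ro15-1788 and graded compound; nonspecific binding with 1-3 μM TP003. Filter-bound radioactivity counted; Ki from IC50 by Cheng-Prusoff using the measured radioligand Kd.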

Test [2] has as its target human α3β3γ2 GABAARs (benzodiazepine site) (Homo sapiens (Human), UniProt P18507+P34903). The experiment in a line: In vitro radioligand binding assay ([3H]Ro15-1788 displacement), α3-GABAAR Ki. To be noted: L(tk-) cell membranes, 4 nM [3H]Ro15-1788. Here is the method:
The affinity (Ki) of compounds for the benzodiazepine site of human recombinant GABAARs was measured by their ability to inhibit the binding of the selective benzodiazepine antagonist [^3H]Ro15-1788 ([^3H] flumazenil).
Mouse L(tk^−) cells stably expressing human α1β3γ2, α2β3γ2, α3β3γ2, α5β3γ2 GABAARs were generated by transfection of the individual subunits in the dexamethasone-inducible expression vector pMSGneo in mouse L(tk^−) cells (Hadingham et al., 1993, Mol. Pharmacol. 43:970-975 and 1993, Mol. Pharmacol. 44:1211-1218).
L(tk^−) cells stably expressing human α1β3γ2, α2β3γ2, α3β3γ2, α5β3γ2 GABAARs were maintained in DMEM F12 medium supplemented with 10% Foetal Bovine Serum, 1% Penicillin/Streptomycin and 1 mg/mL Geneticin G418 in an incubator at 37° C. with a humidified atmosphere with 5% CO2. Dexamethasone was added to the culture medium to induce GABAAR expression.
L(tk−) cells were harvested and membranes were prepared for each receptor combination in either TE buffer (10 mM Tris·CI/0.1 mM EDTA, pH 7.5) or phosphate buffer (K2PO4 10 mM, pH 7.0) (Hadingham et al. (1992) Proc. Natl. Acad. Sci. USA; 89 (14): 6378-82). Protein concentration, receptor expression and the Kd of [^3H]Ro15-1788 were determined before Ki value of the compounds were evaluated. For Kd evaluation, saturation binding curves were obtained by incubating membrane with various concentrations of [^3H]Ro15-1788 (82.5 Ci/mM), with nonspecific binding measured in the presence of 1-3 μM TP003.
For Ki evaluation, cell membranes were incubated with 4 nM [^3H]Ro15-1788 along with a range of concentrations of test compound. Nonspecific binding was determined using 1-3 μM TP003. All incubations were performed for 1 hour at 4° C. in assay buffer. The total assay volume was 0.5 mL, containing 40 μg/well α1β3γ2, 30 μg/well α2β3γ2, 40 μg/well α3β3γ2 and 30 μg/well for α5β3γ2 of membrane protein. Incubations were terminated by filtration and washing with ice cold Tris-HCl buffer (50 mM, pH=7.4) over Whatman GF/B filters and the radioactivity of the filters was measured using liquid scintillation counting.
The % inhibition of [^3H]Ro15-1788 binding was plotted as a function of compound concentration and the IC50 calculated. From the IC50, the affinity (Ki) was calculated using the method of Cheng and Prusoff using the Kd values obtained for [^3H]Ro15-1788.

The next test relates to human α2β3γ2 GABAARs. The experiment in a line: In vitro electrophysiological recording assay (automated patch-clamp), α2-GABAAR relative efficacy. Format: cell-based. The conditions noted are these: % efficacy normalised to diazepam; GABA EC10-20; concentration generally >= 100 times Ki. The method, boiled down:
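Automated whole-cell patch clamp at 20-22° C on L(tk^−) cells (QPatch, −65 mV) or HEK293 cells (SyncroPatch, −80 mV) stably expressing the human receptor. Compound pre-applied ≥1 min, then co-applied with GABA EC10-20; % potentiation of leak-corrected peak current, normalised to diazepam, typically at ≥100× Ki.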

Structures can show the parent of a compound that is named as a salt.

Chain of human α2β3γ2 GABAARs (benzodiazepine site) (P47869 29-451): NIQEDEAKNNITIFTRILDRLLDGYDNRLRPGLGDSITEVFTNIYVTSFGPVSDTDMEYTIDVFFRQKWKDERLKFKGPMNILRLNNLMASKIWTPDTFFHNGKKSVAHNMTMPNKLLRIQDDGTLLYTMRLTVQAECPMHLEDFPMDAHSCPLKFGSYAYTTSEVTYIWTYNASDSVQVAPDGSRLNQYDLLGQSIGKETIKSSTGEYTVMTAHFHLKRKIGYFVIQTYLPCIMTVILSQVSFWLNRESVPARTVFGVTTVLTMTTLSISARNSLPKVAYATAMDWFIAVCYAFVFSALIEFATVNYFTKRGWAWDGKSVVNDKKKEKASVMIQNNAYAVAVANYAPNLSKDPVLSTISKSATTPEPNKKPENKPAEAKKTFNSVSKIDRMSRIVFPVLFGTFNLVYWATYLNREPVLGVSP
Chain of human α2β3γ2 GABAARs (benzodiazepine site) (P28472 26-473 partner): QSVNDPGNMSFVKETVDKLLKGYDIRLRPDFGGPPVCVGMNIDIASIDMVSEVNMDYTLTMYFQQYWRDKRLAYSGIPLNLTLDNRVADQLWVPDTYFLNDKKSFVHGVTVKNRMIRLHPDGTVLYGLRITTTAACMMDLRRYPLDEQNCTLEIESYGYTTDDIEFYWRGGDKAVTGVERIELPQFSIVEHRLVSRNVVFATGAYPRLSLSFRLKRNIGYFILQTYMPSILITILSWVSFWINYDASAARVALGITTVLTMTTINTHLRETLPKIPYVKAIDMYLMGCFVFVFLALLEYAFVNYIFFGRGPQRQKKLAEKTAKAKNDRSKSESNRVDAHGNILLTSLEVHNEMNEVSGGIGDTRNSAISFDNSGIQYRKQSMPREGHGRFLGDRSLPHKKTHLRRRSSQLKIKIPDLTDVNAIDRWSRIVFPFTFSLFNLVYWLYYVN
Chain of human α2β3γ2 GABAARs (benzodiazepine site) (P18507 40-475): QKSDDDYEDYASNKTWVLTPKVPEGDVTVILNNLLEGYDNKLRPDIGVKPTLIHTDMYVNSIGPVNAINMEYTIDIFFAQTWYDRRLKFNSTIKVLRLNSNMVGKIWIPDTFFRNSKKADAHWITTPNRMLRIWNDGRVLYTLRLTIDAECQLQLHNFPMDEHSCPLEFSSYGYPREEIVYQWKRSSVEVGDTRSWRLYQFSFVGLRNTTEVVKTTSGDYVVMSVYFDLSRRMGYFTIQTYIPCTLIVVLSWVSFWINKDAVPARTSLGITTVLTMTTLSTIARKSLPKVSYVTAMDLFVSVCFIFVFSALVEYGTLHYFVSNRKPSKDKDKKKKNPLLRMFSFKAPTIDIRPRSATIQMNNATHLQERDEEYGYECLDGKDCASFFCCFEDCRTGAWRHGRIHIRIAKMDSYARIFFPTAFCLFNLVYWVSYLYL

As for `CCCNC(=O)c1c(N)c2cccc(-c3cccc(OC(F)F)n3)c2[nH]c1=O` [Example 2, 4-Amino-8-(6-(difluoromethoxy)pyridin-2-yl)-2-oxo-N-propyl-1,2-dihydroquinoline-3-carboxamide], the inhibition constant Ki in test [1] amounted to 3.33 nM; in test [2], 1.59 nM. Also, the “α2-GABAAR Relative Efficacy (vs. Diazepam)” value (shortened to “α2-GABAAR Relative Efficacy”) in the test with human α2β3γ2 GABAARs came to 0.34.

`CCCNC(=O)c1c(N)c2cccc(-c3cc(F)ccn3)c2[nH]c1=O` [Example 4, 4-Amino-8-(4-fluoro-2-pyridyl)-2-oxo-N-propyl-1H-quinoline-3-carboxamide]: the inhibitory constant (Ki) in test [1] worked out at 1.26 nM; in test [2] it was 1.65 nM. Also, the “α2-GABAAR Relative Efficacy” value in the test on human α2β3γ2 GABAARs is 0.40.

With `CCCNC(=O)c1c(N)c2cccc(-c3ncccc3C)c2[nH]c1=O` [Example 5, 4-Amino-8-(3-methylpyridin-2-yl)-2-oxo-N-propyl-1,2-dihydroquinoline-3-carboxamide], the figures for the inhibitory constant (Ki) in test [1] and in test [2] were 5.66 nM and 16.1 nM, respectively. The “α2-GABAAR Relative Efficacy” value with human α2β3γ2 GABAARs came to 0.42.

As to `CCCNC(=O)c1c(N)c2cccc(-c3nc(OC)ccc3F)c2[nH]c1=O` [Example 8, 4-Amino-8-(3-fluoro-6-methoxypyridin-2-yl)-2-oxo-N-propyl-1,2-dihydroquinoline-3-carboxamide], the inhibitory constant (Ki) in test [1] worked out at 0.38 nM; in test [2] it was 0.19 nM. Further, in the test with human α2β3γ2 GABAARs, the “α2-GABAAR Relative Efficacy” value came out at 0.24.

Take `CCCNC(=O)c1c(N)c2cccc(-c3nc(C(F)(F)F)ccc3C)c2[nH]c1=O` [Example 13, 4-Amino-8-[3-methyl-6-(trifluoromethyl)-2-pyridyl]-2-oxo-N-propyl-1H-quinoline-3-carboxamide]: the Ki in test [1] was determined as 6.05 nM; in test [2], 7.6 nM. Further, the “α2-GABAAR Relative Efficacy” value with human α2β3γ2 GABAARs came to 0.34.

Regarding `CCCNC(=O)c1c(N)c2cccc(-c3cccnc3OC)c2[nH]c1=O` [Example 14, 4-Amino-8-(2-methoxypyridin-3-yl)-2-oxo-N-propyl-1,2-dihydroquinoline-3-carboxamide], the Ki was determined as 2.13 nM in test [1] and 6.02 nM in test [2]. Also, the “α2-GABAAR Relative Efficacy” value with human α2β3γ2 GABAARs came to 0.45.

For `CCCNC(=O)c1c(N)c2cccc(-c3cncc(OC)c3)c2[nH]c1=O` [Example 23, 4-Amino-8-(5-methoxy-3-pyridyl)-2-oxo-N-propyl-1H-quinoline-3-carboxamide], the Ki in test [1] turned out to be 2.31 nM; in test [2], 7.21 nM. For the same compound, the “α2-GABAAR Relative Efficacy” value in the test on human α2β3γ2 GABAARs worked out at 0.33.

For the compound `CCCNC(=O)c1c(N)c2cccc(-c3cncc(OC(C)C)c3)c2[nH]c1=O` [Example 27, 4-Amino-8-(5-isopropoxypyridin-3-yl)-2-oxo-N-propyl-1,2-dihydroquinoline-3-carboxamide], the Ki in test [1] turned out to be 22.7 nM; in test [2] it was 10.6 nM. The “α2-GABAAR Relative Efficacy” value in the test on human α2β3γ2 GABAARs was found to be 0.28.

As to `CCCNC(=O)c1c(N)c2cccc(-c3cccc4c3OC(F)(F)O4)c2[nH]c1=O` [Example 51, 4-Amino-8-(2,2-difluoro-1,3-benzodioxol-4-yl)-2-oxo-N-propyl-1H-quinoline-3-carboxamide], the Ki was found to be 1.71 nM in test [1] and 1.63 nM in test [2]. For the same compound, the “α2-GABAAR Relative Efficacy” value with human α2β3γ2 GABAARs was 0.31.

With `CCCNC(=O)c1c(N)c2cccc(-c3ccnn3C)c2[nH]c1=O` [Example 53, 4-Amino-8-(2-methylpyrazol-3-yl)-2-oxo-N-propyl-1H-quinoline-3-carboxamide], the Ki was determined as 8.05 nM in test [1] and 18.4 nM in test [2]. Besides, the “α2-GABAAR Relative Efficacy” value in the test with human α2β3γ2 GABAARs turned out to be 0.17.

Take `CCCNC(=O)c1c(N)c2cccc(-c3cc(OCc4cccc(C)n4)ccc3F)c2[nH]c1=O` [Example 88, 4-Amino-8-[2-fluoro-5-[(6-methyl-2-pyridyl)methoxy]phenyl]-2-oxo-N-propyl-1H-quinoline-3-carboxamide]: the inhibition constant Ki worked out at 1.97 nM in test [1] and 1.37 nM in test [2]. Moreover, the “α2-GABAAR Relative Efficacy” value with human α2β3γ2 GABAARs stood at 0.26.

Consider `CCCNC(=O)c1c(N)c2cccc(-c3cc(OCc4csc(C)n4)ccc3F)c2[nH]c1=O` [Example 120, 4-Amino-8-(2-fluoro-5-((2-methylthiazol-4-yl)methoxy)phenyl)-2-oxo-N-propyl-1,2-dihydroquinoline-3-carboxamide], for which the results for the Ki in test [1] and in test [2] were 1.19 nM and 1.18 nM, respectively. The “α2-GABAAR Relative Efficacy” value in the test with human α2β3γ2 GABAARs was 0.21.

Regarding `CCCNC(=O)c1c(N)c2cccc(-c3cc(OCc4cocn4)ccc3F)c2[nH]c1=O` [Example 121, 4-Amino-8-[2-fluoro-5-(oxazol-4-ylmethoxy)phenyl]-2-oxo-N-propyl-1H-quinoline-3-carboxamide], the Ki in test [1] is 0.3 nM; in test [2] it was 0.61 nM. Further, the “α2-GABAAR Relative Efficacy” value in the test with human α2β3γ2 GABAARs was found to be 0.35.

With `CCCNC(=O)c1c(N)c2cccc(-c3cc(OCc4coc(C)n4)ccc3F)c2[nH]c1=O` [Example 122, 4-Amino-8-(2-fluoro-5-((2-methyloxazol-4-yl)methoxy)phenyl)-2-oxo-N-propyl-1,2-dihydroquinoline-3-carboxamide], the inhibitory constant (Ki) in test [1] amounted to 0.89 nM; in test [2] it was 3.56 nM. Further, the “α2-GABAAR Relative Efficacy” value in the test on human α2β3γ2 GABAARs worked out at 0.33.

Regarding `CCCNC(=O)c1c(N)c2cccc(-c3cc(OCc4nnc(C(F)(F)F)o4)ccc3F)c2[nH]c1=O` [Example 132, 4-Amino-8-[2-fluoro-5-[[5-(trifluoromethyl)-1,3,4-oxadiazol-2-yl]methoxy]phenyl]-2-oxo-N-propyl-1H-quinoline-3-carboxamide], the inhibition constant (Ki) in test [1] worked out at 0.66 nM; in test [2] it was 1.19 nM. The “α2-GABAAR Relative Efficacy” value in the test with human α2β3γ2 GABAARs amounted to 0.24.

Consider `CCCNC(=O)c1c(N)c2cccc(-c3cc(CN4CC5(CCOCC5)C4)ccc3F)c2[nH]c1=O` [Example 141, hydrochloride], for which the Ki in test [1] was determined as 2.61 nM. Besides, the “α2-GABAAR Relative Efficacy” value in the test on human α2β3γ2 GABAARs was found to be 0.36.

For the compound `CCCNC(=O)c1c(N)c2cccc(-c3cc(CN4CCC5(CC4)CN(C)C5)ccc3F)c2[nH]c1=O` [Example 144, 4-Amino-8-(2-fluoro-5-((2-methyl-2,7-diazaspiro[3.5]nonan-7-yl)methyl)phenyl)-2-oxo-N-propyl-1,2-dihydroquinoline-3-carboxamide], the Ki came to 1.99 nM in test [1] and 5.43 nM in test [2]. Moreover, the “α2-GABAAR Relative Efficacy” value with human α2β3γ2 GABAARs is 0.41.

Regarding `CCCNC(=O)c1c(N)c2cccc(-c3cc(Cc4ncn(CC)n4)ccc3F)c2[nH]c1=O` [Example 145, 4-Amino-8-(5-((1-ethyl-1H-1,2,4-triazol-3-yl)methyl)-2-fluorophenyl)-2-oxo-N-propyl-1,2-dihydroquinoline-3-carboxamide], in test [1], the Ki stood at 1.29 nM. Moreover, the “α2-GABAAR Relative Efficacy” value in the test with human α2β3γ2 GABAARs came to 0.28.

The record behind these values is patent publication US20250197368A1 (priority 2020, published 2025).
